These results are taken from patent US7829568B2, “Substituted 5,6,7,8-tetrahydroimidazo[1,2-a]pyridin-2-ylamine compounds and their use for producing drugs” (Gruenenthal GmbH, priority 2005, dated 2010).

One may read the Kd as the constant that tells how readily two partners part at equilibrium.

The subject of one assay is batrachotoxin (BTX) binding site of the sodium channel. Nature of the assay: Affinity to the batrachotoxin (BTX) binding site of the sodium channel. Details: species or system rat. Conditions: [3H]-batrachotoxinin A20 α-benzoate 10 nM; synaptosomes from rat cerebral cortex; test concentration not given.
In the case of `CC(NC(=O)c1c(N(C)C(=O)c2cccc(Cl)c2)nc2n1CCCC2)C12CC3CC(CC(C3)C1)C2` (stereo not shown) [Example 165, 2-[(3-chloro-benzoyl)-methyl-amino]-5,6,7,8-tetrahydro-imidazo[1,2-a]pyridine-3-carboxylic acid (1-adamantan-1-yl-ethyl)-amide], the “BTX inhibition (rat) (% inhibition)” value amounted to 39%.

Consider `CN(C(=O)c1ccccc1)c1nc2n(c1C(=O)NC(c1ccccc1)c1ccc(Cl)cc1)CCCC2` (stereo not shown) [Example 166, 2-(benzoyl-methyl-amino)-5,6,7,8-tetrahydro-imidazo[1,2-a]pyridine-3-carboxylic acid [(4-chloro-phenyl)-phenyl-methyl]-amide], for which the “BTX inhibition (rat) (% inhibition)” value amounted to 72%.

`CN(C(=O)c1cccc2ccccc12)c1nc2n(c1C(=O)NC(c1ccccc1)c1ccc(Cl)cc1)CCCC2` (stereo not shown) [Example 139, 2-[methyl-(naphthalene-1-carbonyl)-amino]-5,6,7,8-tetrahydro-imidazo[1,2-a]pyridine-3-carboxylic acid [(4-chlor-phenyl)-phenyl-methyl]-amide]: the “BTX inhibition (rat) (% inhibition)” value turned out to be 73%.

Take `CCCCN(C(=O)c1ccc(F)c(F)c1)c1nc2n(c1C(=O)NCC1COc3ccccc3O1)CCCC2` (stereo not shown) [Example 96, 2-[butyl-(3,4-difluoro-benzoyl)-amino]-5,6,7,8-tetrahydro-imidazo[1,2-a]pyridine-3-carboxylic acid (2,3-dihydro-benzo[1,4]dioxin-2-ylmethyl)-amide]: the “BTX inhibition (rat) (% inhibition)” value turned out to be 33%.

In the case of `CCCCN(C(=O)c1cccc(Cl)c1)c1nc2n(c1C(=O)NC(C)c1cccc3ccccc13)CCCC2` (stereo not shown) [Example 39, 2-[butyl-(3-chloro-benzoyl)-amino]-5,6,7,8-tetrahydro-imidazo[1,2-a]pyridine-3-carboxylic acid (1-naphthalen-1-yl-ethyl)-amide], the “BTX inhibition (rat) (% inhibition)” value turned out to be 47%.

Turning to `CCCCN(C(=O)c1cccc(Cl)c1)c1nc2n(c1C(=O)NCCN1CCCC1)CCCC2` [Example 58, 2-[butyl-(3-chloro-benzoyl)-amino]-5,6,7,8-tetrahydro-imidazo[1,2-a]pyridine-3-carboxylic acid (2-pyrrolidin-1-yl-ethyl)-amide], the “BTX inhibition (rat) (% inhibition)” value is 50%.

Regarding `CCCCN(C(=O)c1cccc(Cl)c1)c1nc2n(c1C(=O)NCC1COc3ccccc3O1)CCCC2` (stereo not shown) [Example 77, 2-[butyl-(3-chloro-benzoyl)-amino]-5,6,7,8-tetrahydro-imidazo[1,2-a]pyridine-3-carboxylic acid (2,3-dihydro-benzo[1,4]dioxin-2-ylmethyl)-amide], the “BTX inhibition (rat) (% inhibition)” value came to 56%.

`CCCCN(C(=O)c1ccc(F)c(F)c1)c1nc2n(c1C(=O)NCCCc1ccccc1)CCCC2` [Example 28, 2-[butyl-(3,4-difluoro-benzoyl)-amino]-5,6,7,8-tetrahydro-imidazo[1,2-a]pyridine-3-carboxylic acid (3-phenyl-propyl)-amide]: the “BTX inhibition (rat) (% inhibition)” value stood at 42%.

As to `CN(C(=O)c1ccccc1)c1nc2n(c1C(=O)NC1CCN(Cc3c(Cl)cccc3Cl)C1)CCCC2` (stereo not shown) [Example 101, 2-(benzoyl-methyl-amino)-5,6,7,8-tetrahydro-imidazo[1,2-a]pyridine-3-carboxylic acid [1-(2,6-dichloro-benzyl)-pyrrolidin-3-yl]-amide], the “BTX inhibition (rat) (% inhibition)” value amounted to 54%.

For the compound `CN(C(=O)c1ccccc1)c1nc2n(c1C(=O)N1CCN(c3ccc(C(F)(F)F)cc3)CC1)CCCC2` [Example 167, N-methyl-N-{3-[4-(4-trifluoromethyl-phenyl)-piperazine-1-carbonyl]-5,6,7,8-tetrahydro-imidazo[1,2-a]pyridin-2-yl}-benzamide], the “BTX inhibition (rat) (% inhibition)” value was determined as 44%.

For `CN(C(=O)c1cccc(Cl)c1)c1nc2n(c1C(=O)NC1CCN(Cc3c(Cl)cccc3Cl)C1)CCCC2` (stereo not shown) [Example 83, 2-[(3-chloro-benzoyl)-methyl-amino]-5,6,7,8-tetrahydro-imidazo[1,2-a]pyridine-3-carboxylic acid [1-(2,6-dichlor-benzyl)-pyrrolidin-3-yl]-amide], the “BTX inhibition (rat) (% inhibition)” value came to 80%.

For the compound `CN(C(=O)c1cccc2ccccc12)c1nc2n(c1C(=O)N1CCN(c3ccccc3Cl)CC1)CCCC2` [Example 148, naphthalene-1-carboxylic acid {3-[4-(2-chloro-phenyl)-piperazine-1-carbonyl]-5,6,7,8-tetrahydro-imidazo[1,2-a]pyridin-2-yl}-methyl-amide], the “BTX inhibition (rat) (% inhibition)” value was 35%.

Take `CCCCN(C(=O)c1cccc(Cl)c1)c1nc2n(c1C(=O)N1CCN(CCCc3ccccc3)CC1)CCCC2` [Example 26, N-butyl-3-chloro-N-{3-[4-(3-phenyl-propyl)-piperazine-1-carbonyl]-5,6,7,8-tetrahydro-imidazo[1,2-a]pyridin-2-yl}-benzamide]: the “BTX inhibition (rat) (% inhibition)” value came out at 93%.

Consider `CCCCN(C(=O)c1ccc(F)c(F)c1)c1nc2n(c1C(=O)N1CCN(Cc3ccc(Cl)cc3)CC1)CCCC2` [Example 150, N-butyl-N-{3-[4-(4-chlorobenzyl)-piperazine-1-carbonyl]-5,6,7,8-tetrahydro-imidazo[1,2-a]pyridin-2-yl}-3,4-difluoro-benzamide], for which the “BTX inhibition (rat) (% inhibition)” value was found to be 69%.

Take `CN(C(=O)c1ccccc1)c1nc2n(c1C(=O)NCc1ccc(Cl)cc1)CCCC2` [Example 157, 2-(benzoyl-methyl-amino)-5,6,7,8-tetrahydro-imidazo[1,2-a]pyridine-3-carboxylic acid 4-chloro-benzylamide]: the “BTX inhibition (rat) (% inhibition)” value stood at 43%.

Turning to `CN(C(=O)c1cccc2ccccc12)c1nc2n(c1C(=O)NCCc1ccc(Oc3ccccc3)cc1)CCCC2` [Example 68, 2-[methyl-(naphthalene-1-carbonyl)-amino]-5,6,7,8-tetrahydro-imidazo[1,2-a]pyridine-3-carboxylic acid [2-(4-phenoxy-phenyl)-ethyl]-amide], the “BTX inhibition (rat) (% inhibition)” value turned out to be 87%.

`COc1cc(Br)c(CN2CCC(NC(=O)c3c(N(C)C(=O)c4cccc(Cl)c4)nc4n3CCCC4)C2)cc1OC` (stereo not shown) [Example 84, 2-[(3-chloro-benzoyl)-methyl-amino]-5,6,7,8-tetrahydro-imidazo[1,2-a]pyridin-3-carboxylic acid [1-(2-bromo-4,5-dimethoxy-benzyl)-pyrrolidin-3-yl]-amide]: the “BTX inhibition (rat) (% inhibition)” value worked out at 87%.

For the compound `CC(CNC(=O)c1c(N(C)C(=O)c2cccc3ccccc23)nc2n1CCCC2)c1ccc(Cl)cc1` (stereo not shown) [Example 163, 2-[methyl-(naphthalene-1-carbonyl)-amino]-5,6,7,8-tetrahydro-imidazo[1,2-a]pyridine-3-carboxylic acid [2-(4-chlor-phenyl)-propyl]-amide], the “BTX inhibition (rat) (% inhibition)” value is on record as 40%.

For `CN(C(=O)c1cccc(Cl)c1)c1nc2n(c1C(=O)Nc1ccc(OCc3ccccc3)cc1)CCCC2` [Example 129, 2-[(3-chloro-benzoyl)-methyl-amino]-5,6,7,8-tetrahydro-imidazo[1,2-a]pyridine-3-carboxylic acid (4-benzyloxy-phenyl)-amide], the “BTX inhibition (rat) (% inhibition)” value turned out to be 76%.

`CCc1ccccc1N1CCN(C(=O)c2c(N(C)C(=O)c3cccc4ccccc34)nc3n2CCCC3)CC1` [Example 136, naphthalene-1-carboxylic acid {3-[4-(2-ethyl-phenyl)-piperazine-1-carbonyl]-5,6,7,8-tetrahydro-imidazo[1,2-a]pyridin-2-yl}-methyl-amide]: the “BTX inhibition (rat) (% inhibition)” value is given as 54%.

Turning to `Cc1ccc(CCNC(=O)c2c(N(C)C(=O)c3cccc4ccccc34)nc3n2CCCC3)cc1` [Example 49, 2-[methyl-(naphthalene-1-carbonyl)-amino]-5,6,7,8-tetrahydro-imidazo[1,2-a]pyridine-3-carboxylic acid (2-p-tolyl-ethyl)-amide], the “BTX inhibition (rat) (% inhibition)” value came to 37%.

Regarding `CN(C(=O)c1cccc2ccccc12)c1nc2n(c1C(=O)N1CCc3c([nH]c4ccccc34)C1)CCCC2` [Example 144, naphthalene-1-carboxylic acid methyl-[3-(1,3,4,9-tetrahydro-b-carboline-2-carbonyl)-5,6,7,8-tetrahydro-imidazo[1,2-a]pyridin-2-yl]-amide], the “BTX inhibition (rat) (% inhibition)” value came out at 31%.

On to `CN(C(=O)c1cccc(Cl)c1)c1nc2n(c1C(=O)NCCc1cccc(C(F)(F)F)c1)CCCC2` [Example 71, 2-[(3-chloro-benzoyl)-methyl-amino]-5,6,7,8-tetrahydro-imidazo[1,2-a]pyridine-3-carboxylic acid [2-(3-trifluoromethyl-phenyl)-ethyl]-amide], for which the “BTX inhibition (rat) (% inhibition)” value turned out to be 36%.

`CN(C(=O)c1cccc(Cl)c1)c1nc2n(c1C(=O)NC1CCN(Cc3ccccc3OCc3ccccc3)C1)CCCC2` (stereo not shown) [Example 59, 2-[(3-chloro-benzoyl)-methyl-amino]-5,6,7,8-tetrahydro-imidazo[1,2-a]pyridine-3-carboxylic acid [1-(2-benzyloxy-benzyl)-pyrrolidin-3-yl]-amide]: the “BTX inhibition (rat) (% inhibition)” value amounted to 95%.

For `CCCCN(C(=O)c1cccc(Cl)c1)c1nc2n(c1C(=O)NC(C)CCc1ccccc1)CCCC2` (stereo not shown) [Example 145, 2-[butyl-(3-chloro-benzoyl)-amino]-5,6,7,8-tetrahydro-imidazo[1,2-a]pyridine-3-carboxylic acid (1-methyl-3-phenyl-propyl)-amide], the “BTX inhibition (rat) (% inhibition)” value is on record as 67%.

Turning to `CCCCN(C(=O)c1cccc(Cl)c1)c1nc2n(c1C(=O)N(C)C1CCN(Cc3c(Cl)cccc3Cl)C1)CCCC2` (stereo not shown) [Example 87, 2-[butyl-(3-chloro-benzoyl)-amino]-5,6,7,8-tetrahydro-imidazo[1,2-a]pyridine-3-carboxylic acid [1-(2,6-dichloro-benzyl)-pyrrolidin-3-yl]-methyl-amide], the “BTX inhibition (rat) (% inhibition)” value is given as 93%.

Take `CN(C(=O)c1cccc2ccccc12)c1nc2n(c1C(=O)NC1CCCCC1)CCCC2` [Example 154, 2-[methyl-(naphthalene-1-carbonyl)-amino]-5,6,7,8-tetrahydro-imidazo[1,2-a]pyridine-3-carboxylic acid cyclohexylamide]: the “BTX inhibition (rat) (% inhibition)” value stood at 92%.

The same assay, now with this note: radioligand at BTX binding site; rat cerebral cortex synaptosomes.
“[^3H]-batrachotoxinin A20 α-benzoate [reference compound]” returned a Kd of 24.6 ± 1.56 nM.
